Results on five compounds are retold here after patent publication US6562865B1, “Composition comprising a tramadol material and an anticonvulsant drug” (Ortho-McNeil Pharmaceutical, Inc., priority 1999, dated 2003).

Where two headings read alike, the source gives them in different places.

Assay [1] has as its system hot plate latency response in mice. Nature of the assay: Antinociceptive effect in the 48° C. Mouse Hot Plate Model. The assay is classed as in vivo. As to conditions: for % Maximal Possible Effect: 1.5 hours. The method, then:
Mice were placed on a heated surface (48° C.) and the time interval (seconds) between placement and a shaking, licking, or tucking of the hind paw was recorded as the predrug latency response. This same procedure was repeated at various times after the test drug was administered p.o., 10 mL/kg.
The 48° C. Mouse Hot Plate was used to calculate the % maximal possible effect (% MPE) according to the formula: [formula]
The analysis of possible synergistic effect at each fixed ratio was determined as described by Tallarida, et al., above.

Assay [2] deals with mechanical (tactile) allodynia in Chung Model rats. Nature of the assay: Antiallodynic effect in the Chung Model (L5 spinal nerve ligation, paw withdrawal threshold with von Frey filaments). The settings on record: for ED50: Rattus norvegicus, po, read-out: ED50 (SEM) of drug alone.
Protocol: The antiallodynic effect of the composition of the present invention in the Chung Model is expressed in % MPE (Maximum Possible Effect).
Pathogen-free, male albino Sprague-Dawley rats, 200 g, were purchased from Harlan Industries (Indianapolis, Ind.) and maintained on a 12-h light/dark cycle (lights on at 06:00 h) in a climate-controlled room with food and water available ad libitum.
The rats were anesthetized with isoflurane inhalant anesthesia. The left lumbar spinal nerve at the level of L5 was tightly ligated (4-0 silk suture) distal to the dorsal root ganglion and prior to entrance into the sciatic nerve, as described by Kim and Chung. The incisions were closed and the rats were allowed to recover under conditions described above. This procedure results in mechanical allodynia in the left hind paw. The sham operation, when performed, consisted of a similar surgical procedure lacking only the final ligation of the spinal nerve. Mechanical (tactile) allodynia was assessed by recording the pressure at which the affected paw (ipsilateral to the site of nerve injury) was withdrawn from graded stimuli (von Frey filaments ranging from 4.0 to 148.1 mN) applied perpendicularly to the plantar surface of the paw (between the footpads) through wire-mesh observation cages. A paw withdrawal threshold (PWT) was determined by sequentially increasing and decreasing the stimulus strength and analyzing withdrawal data using a Dixon non-parametric test (Chaplan, et al). Normal rats, sham operated rats, and the contralateral paw of L5 ligated rats withstand at least 148.1 mN (equivalent to 15 g) of pressure without responding.
The dosing materials were all prepared in the vehicle, a suspension of 0.5% hydroxypropyl methylcellulose in distilled water; drug weights were calculated as the free base. The tramadol solution was prepared first, and the appropriate volume of this solution was added to a neat amount of the anticonvulsant to give the final dosing suspension. Drug weights were calculated as the free base, and the ratios used were based on the respective ED50 values of tramadol and the anticonvulsant. The necessary doses for each ratio were prepared separately and dosed orally in a volume of 10 mL/kg per rat.
The Chung Model rats were all dosed orally with the composition comprising a combination of tramadol hydrochloride (calculated as the base) and the anticonvulsant drug (calculated as the base) or the composition of each agent separately dissolved in distilled water or dissolved in a suspension of 0.5% hydroxypropyl methylcellulose in distilled water. The dosing volume was 10 mL/kg.
The rats were intubated with various doses of tramadol hydrochloride alone, anticonvulsant drug alone, combined doses of tramadol hydrochloride and anticonvulsant or vehicle such as distilled water or a suspension of 0.5% hydroxypropyl methylcellulose in distilled water.
Within a certain time after the oral administration of tramadol hydrochloride alone, the anticonvulsant drug alone, the composition comprising a combination of tramadol hydrochloride and the anticonvulsant drug or vehicle alone, the PWT test was commenced. Each rat was used in the evaluation of only a single dose-ratio.
The analysis of possible synergistic effect for the compositions at each fixed ratio was determined (R. J. Tallarida, et al., Life Sci., 1989, 45, 947). This procedure involves the determination of the total amount in the mixture that is required to produce a specified synergistic antiallodynic effect at the 50% dose level (that is, the ED50mix or Zmix) and the corresponding total amount that would be expected under simple additivity (ED50add or Zadd). Where it is established that Zmix<Zadd for a specific fixed-ratio, then that composition has a synergistic antiallodynic effect. Both the quantities ED50mix and ED50add are random variables.
Setting [3] is: drug alone 25 mg/kg p.o., 2 hours.
Setting [4] is: drug alone 50 mg/kg p.o., 2 hours.
The mark [5] stands for this setting: drug alone 100 mg/kg p.o., 2 hours.
[6] abbreviates: drug alone 250 mg/kg p.o., 2 hours.
Where [7] appears, read: drug alone 500 mg/kg p.o., 2 hours.
The mark [8] stands for this setting: drug alone 30 mg/kg p.o., 1 hour.
Setting [9] is: drug alone 60 mg/kg p.o., 1 hour.
The mark [10] stands for this setting: drug alone 75 mg/kg p.o., 2 hours.
[11] abbreviates: drug alone 90 mg/kg p.o., 1 hour.
Setting [12] is: drug alone 125 mg/kg p.o., 2 hours.
Setting [13] is: drug alone 150 mg/kg p.o., 2 hours.

Consider `CC1(C)O[C@@H]2[C@@H](CO[C@@]3(COS(N)(=O)=O)OC(C)(C)O[C@@H]23)O1` [Topiramate, 2,3,4,5-bis-O-(1-methylethylidene)-β-D-fructopyranose sulfamates], for which the “% Maximal Possible Effect” value in assay [1] (drug alone 10 mg/kg p.o.) was found to be 0.82%; in assay [1] (drug alone 30 mg/kg p.o.), 9.71%. Moreover, the ED50 (in general, the midpoint of the dose-response relation) in assay [2] (2 h) was 98 mg/kg. For the same compound, the “% MPE” value was determined as 11.54 % MPE in assay [2] (setting [3]); 26.58 % MPE in assay [2] (setting [4]); 56.42 % MPE in assay [2] (setting [5]); 76.51 % MPE in assay [2] (setting [6]); 94.38 % MPE in assay [2] (setting [7]).

For `NCC1(CC(=O)O)CCCCC1` [Gabapentin], the ED50 in assay [2] (2 h) is 440 mg/kg. Also, the “% MPE” value stood at 7.31 % MPE in assay [2] (setting [5]); 15.62 % MPE in assay [2] (setting [6]); 54.26 % MPE in assay [2] (setting [7]); 67.95 % MPE in assay [2] (drug alone 750 mg/kg p.o., 2 hours); 85.34 % MPE in assay [2] (drug alone 1000 mg/kg p.o., 2 hours).

For the compound `COc1cccc(C2(O)CCCCC2CN(C)C)c1` (single isomer, unassigned) [Tramadol, (1R,2R or 1S,2S)-2-[(dimethylamino)methyl]-1-(3-methoxyphenyl)cyclohexanol], the ED50 turned out to be 35.1 mg/kg in assay [1] (Mus musculus, po, 1.5 h, p.o., 48° C. hot plate, read-out: ED50 (SEM) at 1.5 Hours); 48.6 mg/kg in assay [2] (1 h); 94.5 mg/kg in assay [2] (2 h). Moreover, the “% Maximal Possible Effect” value in assay [1] (drug alone 10 mg/kg p.o.) turned out to be 5.83%; in assay [1] (drug alone 30 mg/kg p.o.), 37.74%; in assay [1] (drug alone 100 mg/kg p.o.), 86.62%; in assay [1] (drug alone 300 mg/kg p.o.) it was 100%. Further, the “antinociceptive effect in dose-response study” value in assay [1] (p.o., 48° C. hot plate) is listed as “dose-dependent antinociceptive effect”. The “antinociceptive effect at the higher doses” value in assay [1] (p.o., 48° C. hot plate, higher doses) is on record as “Full antinociceptive effect”. Further, the “% MPE” value in assay [2] (drug alone 10 mg/kg p.o., 1 hour) is recorded as 16.79 % MPE; in assay [2] (setting [8]), 25.70 % MPE; in assay [2] (setting [4]), 3.77 % MPE; in assay [2] (setting [9]), 40.96 % MPE; in assay [2] (setting [10]) it was 20.62 % MPE; in assay [2] (setting [11]), 73.61 % MPE. The “% MPE” value in assay [2] (setting [5]) worked out at 45.38 % MPE; in assay [2] (drug alone 120 mg/kg p.o., 1 hour) it was 84.05 % MPE; in assay [2] (setting [12]), 74.29 % MPE; in assay [2] (setting [13]), 100 % MPE.

In the case of `Nc1nnc(-c2cccc(Cl)c2Cl)c(N)n1` [Lamotrigine], the median effective dose (ED50) in assay [2] (2 h) is 75.5 mg/kg. Also, the “% MPE” value was 5.48 % MPE in assay [2] (setting [3]); 21.95 % MPE in assay [2] (setting [4]); 48.69 % MPE in assay [2] (setting [10]); 75.09 % MPE in assay [2] (setting [12]); 83.51 % MPE in assay [2] (setting [13]).

`NC(=O)OC[C@@H](O)c1ccccc1Cl` [RWJ-333369, 1,2-ethanediol, 1-(2-chlorophenyl)-, 2-carbamate, (S)-]: the 50% effective dose (ED50) in assay [2] (1 h) amounted to 77.4 mg/kg. Moreover, the “% MPE” value worked out at 5.57 % MPE in assay [2] (setting [8]); 23.01 % MPE in assay [2] (drug alone 45 mg/kg p.o., 1 hour); 30.43 % MPE in assay [2] (setting [9]); 54.54 % MPE in assay [2] (drug alone 75 mg/kg p.o., 1 hour); 57.01 % MPE in assay [2] (setting [11]).
